Experimental data as given in patent publication US20050281879A1, “Excipients in drug delivery vehicles” (priority 2003, published 2005).
Structures can show the parent of a compound that is named as a salt.

Assays:
[1] = Saturation concentration of bupivacaine hydrochloride in de-ionized water; assay type: physicochemical; conditions: DI water
Experimental: Bupivacaine hydrochloride (Sigma-Aldrich Corporation, St. Louis, Mo.) was dissolved in de-ionized (DI) water at a concentration of 40 mg/ml (saturation). A calculated amount of sodium hydroxide (1 N solution) was added to the solution and the pH of the final mixtures was adjusted to 10 to precipitate the BP base. The precipitated product was filtered, and further washed with DI water for at least three times. The precipitated product was dried at approximately 40° C. in vacuum for 24 hours.

[2] = cited from earlier work

Row | SMILES | concentration in de-ionized water (saturation) [1] [µg/mL] | reported solubility in water [2]
1 | CCCCN1CCCCC1C(=O)Nc1c(C)cccc1C (centres unmarked) [Bupivacaine hydrochloride] | 40000 | –
2 | CC(=O)OCC(COC(C)=O)OC(C)=O [triacetin] | – | 7.17 grams in 100 ml of water
